Measured values taken from patent US20010044437A1, “Methods for reducing uric acid levels” (priority 2000, published 2001).
Values joined by “and” are separate entries in the source; they are usually repeats but may differ in a detail not shown here. Equal values may be shown once.

What was measured:
serum uric acid [1] = assay: Serum uric acid after a single dose (tablet or suspension) in healthy human subjects (Example 33); type: in vivo; conditions: individual subjects
Protocol: Thirty six healthy human subjects are administered either […] or a suspension containing the noted amount of the compound of Example 3 after fasting for at least 8 hours. subjects are administered 200 mg of compound; twelve subjects are administered 400 mg of compound; and twelve subjects are administered 600 mg of compound. Blood was collected before subjects are given the compound (Day −1) and the day following administration (Day 2). Serum uric levels may be measured using standard automated procedures on a uricase peroxidase method. Serum uric acid levels are […] in mg/dL.

serum uric acid [2] = assay: Serum uric acid during 28-day once-daily oral dosing, placebo-controlled study in 48 subjects (Example 34); type: in vivo, human
Protocol: In another study, 48 subjects were divided into four groups, A, B, C and D, and administered the noted amount of the compound of Example 3. Each group was composed of 12 subjects of whom 9 received the compound and 3 received placebo. The non-placebo members of group A received 50 mg of compound, administered orally once a day for 28 days as a single 50 mg tablet. The non-placebo members of group B received 200 mg of compound administered orally once a day for 28 days as a single 200 mg tablet. The non-placebo members of group C received 500 mg of compound administered orally once a day for 28 days as two 50 mg tablets and two 200 mg tablets. The non-placebo members of group D received 800 mg of compound administered orally once a day for 28 days as four 200 mg tablets. The 3 placebo members of each group, received an amount of placebo, as a tablet, equivalent to the amount of test compound—50 mg placebo for group A, 200 mg placebo for group B, 500 mg placebo for group C and 800 mg placebo for group D. Each subject received a single dose of either compound or placebo for 28 days. The subjects were confined at the clinical site beginning the day before dose administration until 72 hours after the final dose administration on Day 28 and returned for an outpatient visit on Day 35.
Uric acid levels were measured prior to beginning the study (screening), on the day immediately prior to commencement of the study (day-1), and then as noted in the table. Hours indicates the time since the last dose was administered. For example, Day 7, 0 hour indicates the time the serum uric acid level at the time the dose was administered and Day 7, 2 hour indicates the uric acid level two hours after the adminstration that day. Further, the Day 30, 60 hour level is the serum uric acid level measured 60 hours (on Day 30) after the last dose was administered on Day 28. The uric acid levels are presented in mg/dL as a mean of all subjects in each group.

## O=C(O)Cn1cc(Cc2nc3c(F)c(F)cc(F)c3s2)c2ccccc21 [Example 3, 3-(4,5,7-Trifluorobenzothiazol-2-yl)methyl-indole-N-acetic Acid]
Serum uric acid [1]; 200 mg suspension, Day 2 vs Day-1
  % Reduction (Suspension): 36% (3×) and 27% and 25% and −51% and 23% (2×) and 35% and 0% and 20% and 11%
Serum uric acid [1]; 200 mg suspension, before administration (baseline)
  Uric Acid Day-1 Suspension: 5.0 mg/dL (2×) and 6.0 mg/dL and 5.3 mg/dL (2×) and 4.3 mg/dL and 5.2 mg/dL and 5.5 mg/dL and 4.7 mg/dL and 3.3 mg/dL and 6.3 mg/dL and 4.5 mg/dL
Serum uric acid [1]; 200 mg suspension, day following administration
  Uric Acid Day 2 (Suspension): 3.2 mg/dL and 4.4 mg/dL and 4.0 mg/dL (3×) and 6.5 mg/dL and 3.6 mg/dL (2×) and 5.3 mg/dL and 2.1 mg/dL and 5.6 mg/dL and 2.9 mg/dL
Serum uric acid [1]; 200 mg tablet, Day 2 vs Day-1
  % reduction (Tablet): 28% and 27% and 26% and −3% and 16% (2×) and 39% (2×) and −2% and 32% and 41% and −16%
Serum uric acid [1]; 200 mg tablet, before administration (baseline)
  Uric Acid Day-1 Tablet: 5.0 mg/dL and 6.3 mg/dL and 5.3 mg/dL and 5.8 mg/dL and 4.9 mg/dL (3×) and 6.2 mg/dL and 5.2 mg/dL and 5.7 mg/dL and 3.7 mg/dL and 5.1 mg/dL
Serum uric acid [1]; 200 mg tablet, day following administration
  Uric Acid Day 2 (Tablet): 3.6 mg/dL and 4.6 mg/dL and 3.9 mg/dL (2×) and 6.0 mg/dL and 4.1 mg/dL (2×) and 3.8 mg/dL and 5.3 mg/dL and 2.2 mg/dL and 5.7 mg/dL and 3.1 mg/dL
Serum uric acid [1]; 400 mg, Day 2 vs Day-1
  % reduction: 47% and 5% and 67% and 9% and 49% and 43% and 2% and 36% and 45% and 51% and −13% and 24%
Serum uric acid [1]; 400 mg, before administration (baseline)
  Uric acid Day-1: 4.5 mg/dL and 4.3 mg/dL and 6.6 mg/dL and 5.3 mg/dL and 3.7 mg/dL and 5.6 mg/dL and 6.0 mg/dL and 4.7 mg/dL (2×) and 7.7 mg/dL and 6.2 mg/dL and 4.6 mg/dL
Serum uric acid [1]; 400 mg, day following administration
  Uric acid Day 2: 2.4 mg/dL and 4.1 mg/dL and 2.2 mg/dL and 4.8 mg/dL and 1.9 mg/dL and 3.2 mg/dL and 5.9 mg/dL and 3.0 mg/dL and 4.2 mg/dL and 2.3 mg/dL and 7.0 mg/dL and 3.5 mg/dL
Serum uric acid [1]; 600 mg, Day 2 vs Day-1
  % reduction: −6% and −44% and 45% and 55% and 42% and 2% and 57% and 47% and 37% and 58% and 50%
Serum uric acid [1]; 600 mg, before administration (baseline)
  Uric acid Day-1: 4.7 mg/dL and 4.3 mg/dL and 5.5 mg/dL and 4.4 mg/dL (2×) and 5.9 mg/dL and 4.6 mg/dL and 3.5 mg/dL and 3.4 mg/dL and 3.0 mg/dL and 3.9 mg/dL
Serum uric acid [1]; 600 mg, day following administration
  Uric acid Day 2: 5.0 mg/dL and 33 mg/dL and 6.2 mg/dL and 3.0 mg/dL and 2.0 mg/dL and 3.4 mg/dL and 4.5 mg/dL and 1.5 mg/dL and 1.8 mg/dL and 1.9 mg/dL and 1.7 mg/dL and 2.2 mg/dL
Serum uric acid [2]; group A 50 mg orally once a day, Day 1 8 Hour
  Uric Acid Level (mean of all subjects in each group): 3.94 mg/dL
Serum uric acid [2]; group A 50 mg orally once a day, Day 1 10 Hour
  Uric Acid Level (mean of all subjects in each group): 3.87 mg/dL
Serum uric acid [2]; group A 50 mg orally once a day, Day 1 12 Hour
  Uric Acid Level (mean of all subjects in each group): 3.89 mg/dL
Serum uric acid [2]; group A 50 mg orally once a day, Day 1 16 Hour
  Uric Acid Level (mean of all subjects in each group): 3.98 mg/dL
Serum uric acid [2]; group A 50 mg orally once a day, Day 1 24 Hour
  Uric Acid Level (mean of all subjects in each group): 4.19 mg/dL
Serum uric acid [2]; group A 50 mg orally once a day, Day 3
  Uric Acid Level (mean of all subjects in each group): 3.62 mg/dL
Serum uric acid [2]; group A 50 mg orally once a day, Day 7 0 Hour
  Uric Acid Level (mean of all subjects in each group): 3.36 mg/dL
Serum uric acid [2]; group A 50 mg orally once a day, Day 7 0.5 Hour
  Uric Acid Level (mean of all subjects in each group): 3.33 mg/dL
Serum uric acid [2]; group A 50 mg orally once a day, Day 7 1 Hour
  Uric Acid Level (mean of all subjects in each group): 3.28 mg/dL
Serum uric acid [2]; group A 50 mg orally once a day, Day 7 2 Hour
  Uric Acid Level (mean of all subjects in each group): 3.14 mg/dL
Serum uric acid [2]; group A 50 mg orally once a day, Day 7 3 Hour
  Uric Acid Level (mean of all subjects in each group): 3.03 mg/dL
Serum uric acid [2]; group A 50 mg orally once a day, Day 7 4 Hour
  Uric Acid Level (mean of all subjects in each group): 2.99 mg/dL
Serum uric acid [2]; group A 50 mg orally once a day, Day 7 6 Hour
  Uric Acid Level (mean of all subjects in each group): 3.30 mg/dL
Serum uric acid [2]; group A 50 mg orally once a day, Day 7 8 Hour
  Uric Acid Level (mean of all subjects in each group): 3.34 mg/dL
Serum uric acid [2]; group A 50 mg orally once a day, Day 7 10 Hour
  Uric Acid Level (mean of all subjects in each group): 3.36 mg/dL
Serum uric acid [2]; group A 50 mg orally once a day, Day 7 12 Hour
  Uric Acid Level (mean of all subjects in each group): 3.26 mg/dL
Serum uric acid [2]; group A 50 mg orally once a day, Day 7 16 Hour
  Uric Acid Level (mean of all subjects in each group): 3.07 mg/dL
Serum uric acid [2]; group A 50 mg orally once a day, Day 7 24 Hour
  Uric Acid Level (mean of all subjects in each group): 3.48 mg/dL
Serum uric acid [2]; group A 50 mg orally once a day, Day 14 0 Hour
  Uric Acid Level (mean of all subjects in each group): 3.51 mg/dL
Serum uric acid [2]; group A 50 mg orally once a day, Day 14 0.5 Hour
  Uric Acid Level (mean of all subjects in each group): 3.43 mg/dL
Serum uric acid [2]; group A 50 mg orally once a day, Day 14 1 Hour
  Uric Acid Level (mean of all subjects in each group): 3.41 mg/dL
Serum uric acid [2]; group A 50 mg orally once a day, Day 14 2 Hour
  Uric Acid Level (mean of all subjects in each group): 3.37 mg/dL
Serum uric acid [2]; group A 50 mg orally once a day, Day 14 3 Hour
  Uric Acid Level (mean of all subjects in each group): 3.19 mg/dL
Serum uric acid [2]; group A 50 mg orally once a day, Day 14 4 Hour
  Uric Acid Level (mean of all subjects in each group): 3.17 mg/dL
Serum uric acid [2]; group A 50 mg orally once a day, Day 14 6 Hour
  Uric Acid Level (mean of all subjects in each group): 3.38 mg/dL
Serum uric acid [2]; group A 50 mg orally once a day, Day 14 8 Hour
  Uric Acid Level (mean of all subjects in each group): 3.34 mg/dL
Serum uric acid [2]; group A 50 mg orally once a day, Day 14 10 Hour
  Uric Acid Level (mean of all subjects in each group): 3.24 mg/dL
Serum uric acid [2]; group B 200 mg orally once a day, Day 1 8 Hour
  Uric Acid Level (mean of all subjects in each group): 3.37 mg/dL
Serum uric acid [2]; group B 200 mg orally once a day, Day 1 10 Hour
  Uric Acid Level (mean of all subjects in each group): 3.16 mg/dL
Serum uric acid [2]; group B 200 mg orally once a day, Day 1 12 Hour
  Uric Acid Level (mean of all subjects in each group): 3.12 mg/dL
Serum uric acid [2]; group B 200 mg orally once a day, Day 1 16 Hour
  Uric Acid Level (mean of all subjects in each group): 3.01 mg/dL
Serum uric acid [2]; group B 200 mg orally once a day, Day 1 24 Hour
  Uric Acid Level (mean of all subjects in each group): 3.64 mg/dL
Serum uric acid [2]; group B 200 mg orally once a day, Day 3
  Uric Acid Level (mean of all subjects in each group): 2.94 mg/dL
Serum uric acid [2]; group B 200 mg orally once a day, Day 7 0 Hour
  Uric Acid Level (mean of all subjects in each group): 2.86 mg/dL
Serum uric acid [2]; group B 200 mg orally once a day, Day 7 0.5 Hour
  Uric Acid Level (mean of all subjects in each group): 2.79 mg/dL
Serum uric acid [2]; group B 200 mg orally once a day, Day 7 1 Hour
  Uric Acid Level (mean of all subjects in each group): 2.74 mg/dL
Serum uric acid [2]; group B 200 mg orally once a day, Day 7 2 Hour
  Uric Acid Level (mean of all subjects in each group): 2.61 mg/dL
Serum uric acid [2]; group B 200 mg orally once a day, Day 7 3 Hour
  Uric Acid Level (mean of all subjects in each group): 2.50 mg/dL
Serum uric acid [2]; group B 200 mg orally once a day, Day 7 4 Hour
  Uric Acid Level (mean of all subjects in each group): 2.47 mg/dL
Serum uric acid [2]; group B 200 mg orally once a day, Day 7 6 Hour
  Uric Acid Level (mean of all subjects in each group): 2.72 mg/dL
Serum uric acid [2]; group B 200 mg orally once a day, Day 7 8 Hour
  Uric Acid Level (mean of all subjects in each group): 2.54 mg/dL
Serum uric acid [2]; group B 200 mg orally once a day, Day 7 10 Hour
  Uric Acid Level (mean of all subjects in each group): 2.53 mg/dL
Serum uric acid [2]; group B 200 mg orally once a day, Day 7 12 Hour
  Uric Acid Level (mean of all subjects in each group): 2.44 mg/dL
Serum uric acid [2]; group B 200 mg orally once a day, Day 7 16 Hour
  Uric Acid Level (mean of all subjects in each group): 2.43 mg/dL
